Test results reported in patent publication US5641780A, “Pyrrolo-indole derivatives” (priority 1994, dated 1997).
Read-outs that look alike come from different tables or passages of the source.

What was measured:
[1] = system: HeLaS3 cells; assay: Growth Inhibitory Effect Against HeLaS3 cells; assay type: cell-based
Protocol: HeLaS3 cells were suspended in MEM medium containing 10% fetal calf serum and 2 mM glutamine to a concentration of 2.67×10^4 cells/ml. The cell suspension thus prepared was put into wells of a 24-well culture plate in an amount of 0.75 ml per well. After the cells were incubated in a CO2 incubator overnight at 37° C., Compound (I) which had been appropriately diluted with a culture medium was added to each well in an amount of 0.25 ml.
The cells were further incubated in the CO2 incubator for 72 hours, and the culture supernatant was removed. Then, the cells were dispersed in a solution of trypsin and EDTA, and recovered. The number of the cells was counted using a cell counter. The concentration of Compound (I) at which the growth of the cells is inhibited by 50% was calculated by comparing the number of untreated cells with the number of the cells treated with Compound (I) at known concentrations, and the value was defined as IC50.

[2] = system: Sarcoma 180 tumor; assay: Therapeutic Effect on Sarcoma 180 Tumor; assay type: in vivo, male ddY-strain mice; conditions: determined seven days after implantation
Protocol: Five male ddY-strain mice each weighing 18-20 g were used for each group as test animals, and 5×10^5 Sarcoma 180 tumor cells were implantedat the axilla subcutaneously. One day after the implantation, 0.2 ml of a physiological saline containing Compound (I) at the concentration shown in Table 3 was intravenously administered to each mouse. T/C [T: average tumor volume (mm^3) of the group treated with the test compound, C: average tumor volume (mm^3) of the control group (to which 0.2 ml of a physiological saline was intravenously administered)] was determined seven days after the implantation.

[3] = system: ddY-strain male mice; assay: Acute toxicity (minimum lethal dose); assay type: in vivo; conditions: intravenous, mortality at 14 days after administration
Protocol: Compound (I) was intravenously administered to ddY-strain male mice each weighing 20±1 g. MLD (minimum lethal dose) was determined by observing the mortality at 14 days after administration.

[4] = system: melanoma B-16; conditions: cited from earlier work
[5] = system: various bacteria; conditions: cited from earlier work
[6] = Homo sapiens, HeLa S3, 72 hours, 37° C., cell counter, read-out: IC50, growth inhibition of HeLaS3 cells
[7] = Mus musculus, Sarcoma-180, 168 h, dose 2.0 mg/kg, intravenous, one day after implantation, read-out: T/C (average tumor volume treated / control)
[8] = Homo sapiens, HeLa S3, 72 h, read-out: IC50, growth inhibition of HeLaS3 cells, 72 hours, 37° C., cell counter
[9] = Mus musculus, Sarcoma-180, iv, 168 h, read-out: T/C (average tumor volume treated / control), dose 2.0 mg/kg, intravenous, one day after implantation

| Compound | IC50 [1, 8] | response vs control in vivo at 2 mg/kg [2, 9] | MLD (minimum lethal dose) [3] | other results |
| --- | --- | --- | --- | --- |
| COC(=O)c1c(C)[nH]c2c(OC(=O)c3cccc(N(C)C)c3)cc3c(c12)C(CBr)CN3C(=O)/C=C/c1ccc(OC)cc1 (centres unmarked) [Compound 24] | – | – | – | IC50 [1, 6]: 0.43 nM; response vs control in vivo at 2 mg/kg [2, 7]: 31% |
| CCN(CC)c1ccc(C(=O)Oc2cc3c(c4c(C(=O)OC)c(C)[nH]c24)C(CBr)CN3C(=O)/C=C/c2ccc(OC)cc2)cc1 (centres unmarked) [Compound 25] | 13 nM | 14% | 2.0 mg/kg | – |
| COC(=O)c1c(C)[nH]c2c(OC(=O)c3ccc(-n4cccc4)cc3)cc3c(c12)C(CBr)CN3C(=O)/C=C/c1ccc(OC)cc1 (centres unmarked) [Compound 26] | 1.7 nM | 15% | 2.0 mg/kg | – |
| COC(=O)c1c(C)[nH]c2c(OC(=O)c3ccc(CN4CCN(C)CC4)cc3)cc3c(c12)C(CBr)CN3C(=O)/C=C/c1ccc(OC)cc1 (centres unmarked) [Compound 28] | 0.83 nM | 21% | 2.0 mg/kg | – |
| COC(=O)c1c(C)[nH]c2c(OC(=O)NN(C)C)cc3c(c12)C(CBr)CN3C(=O)/C=C/c1ccc(OC)cc1 (centres unmarked) [Compound 29] | – | – | 2.0 mg/kg | IC50 [1, 6]: 0.43 nM; response vs control in vivo at 2 mg/kg [2, 7]: 18% |
| COC(=O)c1c(C)[nH]c2c(OC(=O)N(C)N)cc3c(c12)C(CBr)CN3C(=O)/C=C/c1ccc(OC)cc1 (centres unmarked) [Compound 30] | 0.94 nM | 22% | 2.0 mg/kg | – |
| COC(=O)c1c(C)[nH]c2c(OC(=O)NN3CCC(N4CCCCC4)CC3)cc3c(c12)C(CBr)CN3C(=O)/C=C/c1ccc(OC)cc1 (centres unmarked) [Compound 32] | 0.8 nM | – | > 8.0 mg/kg | response vs control in vivo at 8 mg/kg ([2]; Mus musculus, Sarcoma-180, iv, 168 h, read-out: T/C (average tumor volume treated / control), dose 8.0 mg/kg, intravenous, one day after implantation): 10% |
| COC(=O)c1c(C)[nH]c2c(OC(=O)CSCC(=O)O)cc3c(c12)C(CBr)CN3C(=O)/C=C/c1ccc(OC)cc1 (centres unmarked) [Compound 33] | 0.33 nM | 17% | 2.0 mg/kg | – |
| COC(=O)c1c(C)[nH]c2c(OC(=O)c3ccc(CNC(=O)OC(C)(C)C)cc3)cc3c(c12)C(CBr)CN3C(=O)/C=C/c1ccc(OC)cc1 (centres unmarked) [Compound 34] | – | – | – | IC50 [1, 6]: 0.52 nM; response vs control in vivo at 2 mg/kg [2, 7]: 28% |
| COC(=O)c1c(C)[nH]c2c(OC(=O)c3ccc(CN)cc3)cc3c(c12)C(CBr)CN3C(=O)/C=C/c1ccc(OC)cc1 (centres unmarked) [Compound 36] | – | – | – | IC50 [1, 6]: 1 nM; response vs control in vivo at 4 mg/kg ([2]; Mus musculus, Sarcoma-180, 168 h, dose 4.0 mg/kg, intravenous, one day after implantation, read-out: T/C (average tumor volume treated / control)): 35% |
| COC(=O)c1c(C)[nH]c2c(OC(=O)NN3CCN(C)CC3)cc3c(c12)C(CBr)CN3C(=O)/C=C/c1ccc(OC)cc1 (centres unmarked) [Compound 37] | – | – | > 8.0 mg/kg | IC50 ([1]; read-out: IC50, growth inhibition of HeLaS3 cells, 72 hours, 37° C., cell counter): 0.91 nM; T/C (average tumor volume treated / control) ([2]; dose 8.0 mg/kg, intravenous, one day after implantation, 8 mg/kg): 0.27 |
| CNN(C)C(=O)Oc1cc2c(c3c(C(=O)OC)c(C)[nH]c13)C(CBr)CN2C(=O)/C=C/c1ccc(OC)cc1 (centres unmarked) [Compound 38] | 1.5 nM | – | 4.0 mg/kg | response vs control in vivo at 4 mg/kg ([2]; Mus musculus, Sarcoma-180, iv, 168 h, read-out: T/C (average tumor volume treated / control), dose 4.0 mg/kg, intravenous, one day after implantation): 14% |
| COC(=O)c1c(C)[nH]c2c(OC(=O)CN3CCN(C)CC3)cc3c(c12)C(CBr)CN3C(=O)/C=C/c1ccc(OC)cc1 (centres unmarked) [Compound 39] | 0.36 nM | – | 4.0 mg/kg | – |
| COC(=O)c1c(C)[nH]c2c(OC(=O)CN3CCC(N4CCCCC4)CC3)cc3c(c12)C(CBr)CN3C(=O)/C=C/c1ccc(OC)cc1 (centres unmarked) [Compound 40] | 0.29 nM | – | 2.0 mg/kg | – |
| COC(=O)c1cc2c([nH]1)C(=O)C=C1N(C(=O)c3cc4cc(OC)c(OC)c(OC)c4[nH]3)CC3CC123 (centres unmarked) [DC113] | – | – | – | antitumor activity against melanoma B-16 [4]: anti-tumor activity against melanoma B-16; antibacterial activity against various bacteria [5]: antibacterial activity against various bacteria |
| COC(=O)[C@]1(C)NC2=C(C1=O)[C@@]13C[C@@H]1CN(C(=O)c1cc4cc(OC)c(OC)c(OC)c4[nH]1)C3=CC2=O [DC-88A] | – | – | – | antitumor activity against melanoma B-16 [4]: anti-tumor activity against melanoma B-16; antibacterial activity against various bacteria [5]: antibacterial activity against various bacteria |
